Earlier results in patent US20030004142A1, “Use of NSAIDs for prevention and treatment of cellular abnormalities of the lung or bronchial pathway” (priority 2001, published 2003).

Experiments:
OPC cell lines [1] = conditions: all OPC cell lines tested
OPC cell lines [2] = conditions: all OPC cell lines tested; remark: listed apart in the source

Question: Which results are given for `O=C(c1ccccc1)c1ccc2n1CCC2C(=O)O` (stereo not shown) [ketorolac, (.+−.)5(benzoyl)-2,3-dihydro-1H-pyrrolizine-1carboxylic acid]?
Answer: PGE2 production (OPC cell lines [1]): continuously and significantly decreased; IL-6 levels (OPC cell lines [2]): continuously and significantly decreased; IL-8 levels (OPC cell lines [2]): continuously and significantly decreased; OPC growth in vivo (OPC): reduced OPC growth in vivo
